Source: US10689414B2 (Agios Pharmaceuticals, Inc., priority 2013, dated 2020)

System: U87MG cells
Assay: Cellular assay, inhibition of 2-HG production in U87MG cells
Assay type: cell-based
Details: Homo sapiens, U-87 MG, 48 h
Protocol: Cells (HT1080 or U87MG) are grown in T125 flasks in DMEM containing 10% FBS, 1× penicillin/streptomycin and 500 ug/mL G418 (present in U87MG cells only). They are harvested by trypsin and seeded into 96 well white bottom plates at a density of 5000 cell/well in 100 ul/well in DMEM with 10% FBS. […] Cells are incubated overnight at 37° C. in 5% CO2. The next day test compounds are made up at 2× the final concentration and 100 ul are added to each cell well. The final concentration of DMSO is 0.2% and the DMSO control wells are plated in row G. The plates are then placed in the incubator for 48 hours. […] The cell plate is placed back in the incubator for another 24 hours. At 72 hours post compound addition, 10 mL/plate of Promega Cell Titer Glo reagent is thawed and mixed. The cell plate is removed from the incubator and allowed to equilibrate to room temperature. Then 100 ul of Promega Cell Titer Glo reagent is added to each well of media. The cell plate is then placed on an orbital shaker for 10 minutes and then allowed to sit at room temperature for 20 minutes. The plate is then read for luminescence with an integration time of 500 ms.

SMILES	IC50
N#Cc1ccnc(N2C(=O)CNC[C@H]2C(=O)N(c2cc(F)cc(F)c2)[C@H](C(=O)NC2CC(F)(F)C2)c2ccccc2Cl)n1 [Compound 99, (S)—N—((S)-1-(2-chlorophenyl)-2-((3,3-difluorocyclobutyl)amino)-2-oxoethyl)-1-(4-cyanopyrimidin-2-yl)-N-(3,5-difluorophenyl)-6-oxopiperazine-2-carboxamide]	< 100 nM
N#Cc1ccnc(N2C(=O)CNC[C@H]2C(=O)N(c2cc(F)cc(F)c2)[C@H](C(=O)NC2CC(F)(F)C2)c2ccccc2Cl)c1 [Compound 100, (S)—N—((S)-1-(2-Chlorophenyl)-2-((3,3-difluorocyclobutyl)amino)-2-oxoethyl)-1-(4-cyanopyridin-2-yl)-N-(3,5-difluorophenyl)-6-oxopiperazine-2-carboxamide]	< 100 nM
CN1CC(=O)N(c2cc(C#N)ccn2)[C@H](C(=O)N(c2cc(F)cc(F)c2)[C@H](C(=O)NC2CC(F)(F)C2)c2ccccc2Cl)C1 [Compound 101, (S)—N—((S)-1-(2-chlorophenyl)-2-((3,3-difluorocyclobutyl)amino)-2-oxoethyl)-1-(4-cyanopyridin-2-yl)-N-(3,5-difluorophenyl)-4-methyl-6-oxopiperazine-2-carboxamide]	< 100 nM
CS(=O)(=O)c1cccc(N(C(=O)[C@@H]2CCC(=O)N2c2nccc(C#N)n2)[C@H](C(=O)NC2CCC(F)(F)CC2)c2ccccc2Cl)c1 [Compound 103, (S)—N—((S)-1-(2C)-2-((4,4-difluorocyclohexyl)amino)-2-oxoethyl)-1-(4-cyanopyrimidin-2-yl)-N-(3-(methylsulfonyl)phenyl)-5-oxopyrrolidine-2-carboxamide]	100 to 500 nM
N#Cc1ccnc(N2C(=O)CN(C3CC3)C[C@H]2C(=O)N(c2cc(F)cc(F)c2)[C@H](C(=O)NC2CC(F)(F)C2)c2ccccc2Cl)c1 [Compound 106, (S)—N—((S)-1-(2-chlorophenyl)-2-((3,3-difluorocyclobutyl)amino)-2-oxoethyl)-1-(4-cyanopyridin-2-yl)-4-cyclopropyl-N-(3,5-difluorophenyl)-6-oxopiperazine-2-carboxamide]	< 100 nM
N#Cc1ccnc(N2C(=O)CN(CCO)C[C@H]2C(=O)N(c2cc(F)cc(F)c2)[C@H](C(=O)NC2CC(F)(F)C2)c2ccccc2Cl)c1 [Compound 107, (S)—N—((S)-1-(2-chlorophenyl)-2-((3,3-difluorocyclobutyl)amino)-2-oxoethyl)-1-(4-cyanopyridin-2-yl)-N-(3,5-difluorophenyl)-4-(2-hydroxyethyl)-6-oxopiperazine-2-carboxamide]	< 100 nM
N#Cc1ccnc(N2C(=O)[C@H](O)C[C@H]2C(=O)N(c2cc(F)cc(F)c2)[C@@H](C(=O)NC2CC(F)(F)C2)c2ccccc2Cl)c1 [Compound 114, (2S,4R)—N—((R)-1-(2-Chlorophenyl)-2-((3,3-difluorocyclobutyl)amino)-2-oxoethyl)-1-(4-cyanopyridin-2-yl)-N-(3,5-difluorophenyl)-4-hydroxy-5-oxopyrrolidine-2-carboxamide]	< 100 nM
N#Cc1ccnc(N2C(=O)[C@H](O)C[C@H]2C(=O)N(c2cc(F)cc(F)c2)[C@H](C(=O)NC2CC(F)(F)C2)c2ccccc2Cl)c1 [Compound 115, (2S,4R)—N—((S)-1-(2-Chlorophenyl)-2-((3,3-difluorocyclobutyl)amino)-2-oxoethyl)-1-(4-cyanopyridin-2-yl)-N-(3,5-difluorophenyl)-4-hydroxy-5-oxopyrrolidine-2-carboxamide]	< 100 nM
N#Cc1ccnc(N2C(=O)[C@H](O)C[C@H]2C(=O)N(c2cccc(F)c2)[C@H](C(=O)NC2CCC(F)(F)CC2)c2ccccc2Cl)c1 [Compound 121, (2S,4R)—N—((S)-1-(2-Chlorophenyl)-2-((4,4-difluorocyclohexyl)amino)-2-oxoethyl)-1-(4-cyanopyridin-2-yl)-N-(3-fluorophenyl)-4-hydroxy-5-oxopyrrolidine-2-carboxamide]	< 100 nM
N#Cc1ccnc(N2C(=O)[C@H](O)C[C@H]2C(=O)N(c2cc(F)cc(F)c2)[C@@H](C(=O)NC2CCC(F)(F)CC2)c2ccccc2Cl)c1 [Compound 124, (2S,4R)—N—((R)-1-(2-Chlorophenyl)-2-(4,4-difluorocyclohexylamino)-2-oxoethyl)-1-(4-cyanopyridin-2-yl)-N-(3,5-difluorophenyl)-4-hydroxy-5-oxopyrrolidine-2-carboxamide]	< 100 nM

The next lines start with the values.

IC50	SMILES
< 100 nM	CC(C)(C)OC(=O)N1CC(=O)N(c2nccc(C#N)n2)[C@H](C(=O)N(c2cc(F)cc(F)c2)[C@H](C(=O)NC2CC(F)(F)C2)c2ccccc2Cl)C1 [Compound 98, (3S)-tert-butyl 3-((1-(2-chlorophenyl)-2-((3,3-difluorocyclobutyl)amino)-2-oxoethyl)(3,5-difluorophenyl)carbamoyl)-4-(4-cyanopyrimidin-2-yl)-5-oxopiperazine-1-carboxylate]
< 100 nM	CCOC(=O)CN1CC(=O)N(c2cc(C#N)ccn2)[C@H](C(=O)N(c2cc(F)cc(F)c2)[C@H](C(=O)NC2CC(F)(F)C2)c2ccccc2Cl)C1 [Compound 104]
< 100 nM	CCOC(=O)CN1C[C@@H](C(=O)N(c2cccc(F)c2)C(C(=O)NC2CC(F)(F)C2)c2ccccc2Cl)N(c2nccc(C#N)n2)C1=O (stereo partly drawn) [Compound 111, Ethyl 2-((4S)-4-((1-(2-chlorophenyl)-2-((3,3-difluorocyclobutyl)amino)-2-oxoethyl)(3-fluorophenyl)carbamoyl)-3-(4-cyanopyrimidin-2-yl)-2-oxoimidazolidin-1-yl)acetate]
< 100 nM	N#Cc1ccnc(N2C(=O)N(CCO)C[C@H]2C(=O)N(c2cccc(F)c2)C(C(=O)NC2CC(F)(F)C2)c2ccccc2Cl)c1 (stereo partly drawn) [Compound 112, (4S)—N-(1-(2-Chlorophenyl)-2-(3,3-difluorocyclobutyl-amino)-2-oxoethyl)-3-(4-cyanopyridin-2-yl)-N-(3-fluorophenyl)-1-(2-hydroxyeth-yl)-2-oxoimidazolidine-4-carboxamide]
< 100 nM	N#Cc1ccnc(N2C(=O)[C@H](O)C[C@H]2C(=O)N(c2cccc(F)c2)[C@H](C(=O)NC2CC(F)(F)C2)c2ccccc2Cl)c1 [Compound 113, (2S,4R)—N—((S)-1-(2-Chlorophenyl)-2-(3,3-difluorocyclobutylamino)-2-oxoethyl)-1-(4-cyano-pyridin-2-yl)-N-(3-fluorophenyl)-4-hydroxy-5-oxopyrrolidine-2-carboxamide]
100 to 500 nM	N#Cc1ccnc(N2C(=O)[C@H](O)C[C@H]2C(=O)N(c2cc(F)cc(F)c2)[C@@H](C(=O)NC2CC(F)(F)C2)c2ccccc2Cl)n1 [Compound 116, (2S,4R)—N—((R)-1-(2-Chlorophenyl)-2-((3,3-difluorocyclobutyl)amino)-2-oxoethyl)-1-(4-cyanopyrimidin-2-yl)-N-(3,5-difluorophenyl)-4-hydroxy-5-oxopyrrolidine-2-carboxamide]
< 100 nM	N#Cc1ccnc(N2C(=O)[C@H](O)C[C@H]2C(=O)N(c2cc(F)cc(F)c2)[C@H](C(=O)NC2CC(F)(F)C2)c2ccccc2Cl)n1 [Compound 117, (2S,4R)—N—((S)-1-(2-Chlorophenyl)-2-((3,3-difluorocyclobutyl)amino)-2-oxoethyl)-1-(4-cyanopyrimidin-2-yl)-N-(3,5-difluorophenyl)-4-hydroxy-5-oxopyrrolidine-2-carboxamide]
< 100 nM	N#Cc1ccnc(N2C(=O)[C@@H](O)C[C@H]2C(=O)N(c2cccc(F)c2)[C@H](C(=O)NC2CC(F)(F)C2)c2ccccc2Cl)c1 [Compound 118, (2S,4S)—N—((S)-1-(2-Chlorophenyl)-2-(3,3-difluorocyclobutylamino)-2-oxoethyl)-1-(4-cyano-pyridin-2-yl)-N-(3-fluorophenyl)-4-hydroxy-5-oxopyrrolidine-2-carboxamide]
100 to 500 nM	N#Cc1ccnc(N2C(=O)[C@@H](O)C[C@H]2C(=O)N(c2cccc(F)c2)[C@H](C(=O)NC2CC(F)(F)C2)c2ccccc2Cl)n1 [Compound 119, (2S,4S)—N—((S)-1-(2-Chlorophenyl)-2-(3,3-difluorocyclobutylamino)-2-oxoethyl)-1-(4-cyanopyrimidin-2-yl)-N-(3-fluorophenyl)-4-hydroxy-5-oxopyrrolidine-2-carboxamide]
100 to 500 nM	N#Cc1ccnc(N2C(=O)[C@H](O)C[C@H]2C(=O)N(c2cccc(F)c2)[C@H](C(=O)NC2CC(F)(F)C2)c2ccccc2Cl)n1 [Compound 120, (2S,4R)—N—((S)-1-(2-Chlorophenyl)-2-((3,3-difluorocyclobutyl)amino)-2-oxoethyl)-1-(4-cyanopyrimidin-2-yl)-N-(3-fluorophenyl)-4-hydroxy-5-oxopyrrolidine-2-carboxamide]
100 to 500 nM	N#Cc1ccnc(N2C(=O)[C@H](O)C[C@H]2C(=O)N(c2cccc(F)c2)[C@@H](C(=O)NC2CCC(F)(F)CC2)c2ccccc2Cl)n1 [Compound 122, (2S,4R)—N—((R)-1-(2-Chlorophenyl)-2-((4,4-difluorocyclohexyl)amino)-2-oxoethyl)-1-(4-cyanopyrimidin-2-yl)-N-(3-fluorophenyl)-4-hydroxy-5-oxopyrrolidine-2-carboxamide]
< 100 nM	N#Cc1ccnc(N2C(=O)[C@H](O)C[C@H]2C(=O)N(c2cccc(F)c2)[C@H](C(=O)NC2CCC(F)(F)CC2)c2ccccc2Cl)n1 [Compound 123, (2S,4R)—N—((S)-1-(2-Chlorophenyl)-2-((4,4-difluorocyclohexyl)amino)-2-oxoethyl)-1-(4-cyanopyrimidin-2-yl)-N-(3-fluorophenyl)-4-hydroxy-5-oxopyrrolidine-2-carboxamide]
